Laboratory results: patent publication US20130143929A1, “FUNGICIDAL IMIDAZOLES” (EI DU PONT DE NEMOURS AND COMPANY, priority 2010, published 2013)
Marks after values point to notes of the source that are not given here.

Experiments:
Assay type in all cases: in vivo
[1] = test system: Septoria tritici (the causal agent of wheat leaf blotch); assay: Test B: wheat leaf blotch, preventive spray on wheat seedlings, visual disease rating; settings: wheat leaf blotch, preventive spray on wheat seedlings
Procedure, shortened: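 Wheat seedlings sprayed to run-off with compound suspension (acetone/water with 250 ppm Trem 014; 200 ppm ≈ 800 g/ha, some at 40 ppm), inoculated next day with Septoria tritici spores. 48 h saturated humidity at 24 °C, then 19 days at 20 °C; visual rating, 100 = full control.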

[2] = test system: Puccinia recondite f. sp. tritici (the causal agent of wheat leaf rust); assay: Test A: wheat leaf rust, preventive spray on wheat seedlings, visual disease rating; settings: wheat leaf rust, preventive spray on wheat seedlings
Procedure, shortened: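 Wheat seedlings were sprayed to run-off with compound suspended in acetone/water containing 250 ppm Trem 014 (200 ppm ≈ 800 g/ha; some at 40 ppm). Puccinia recondite spores were inoculated the next day. Plants were held 24 h saturated at 20° C, then 7 days at 20° C, and disease control was rated visually on a 0–100 scale against controls.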

[3] = test system: Blumeria graminis f. sp. tritici (also known as Erysiphe graminis f. sp. tritici, the causal agent of wheat powdery mildew); assay: Test D: wheat powdery mildew, preventive spray on wheat seedlings, visual disease rating; settings: wheat powdery mildew, preventive spray on wheat seedlings
Procedure, shortened: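 Compound suspended in acetone/water (50/50) with 250 ppm Trem 014 and sprayed to run-off on wheat seedlings (200 ppm ≈ 800 g/ha), then inoculated next day with spore dust. Disease rated visually after 8 days at 20 °C as % control relative to untreated plants (0-100).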

[4] = test system: Botrytis cinerea (the causal agent of tomato Botrytis); assay: Test C: tomato Botrytis, preventive spray on tomato seedlings, visual disease rating; settings: tomato Botrytis, preventive spray on tomato seedlings
Procedure, shortened: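 Test suspension (acetone/water with 250 ppm Trem 014; 200 ppm equivalent to 800 g/ha) sprayed to run-off on tomato seedlings; B. cinerea spores inoculated next day. After 48 h saturated humidity at 20° C then 3 days at 24° C, disease rated visually as % control relative to untreated controls (0–100).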

[5] = asterisk: 40 ppm test suspension
[6] = no asterisk (standard test suspension concentration, not 40 ppm)

Compound	Test B rating (100 = 100% disease control, 0 = no disease control relative to the controls) [1, 5]	Test A rating (100 = 100% disease control, 0 = no disease control relative to the controls) [2, 5]	Test D rating (100 = 100% disease control, 0 = no disease control relative to the controls) [3, 5]	Test C rating (100 = 100% disease control, 0 = no disease control relative to the controls) [4, 5]	Test B rating (100 = 100% disease control, 0 = no disease control relative to the controls) [1, 6]	Test A rating (100 = 100% disease control, 0 = no disease control relative to the controls) [2, 6]	Test D rating (100 = 100% disease control, 0 = no disease control relative to the controls) [3, 6]	Test C rating (100 = 100% disease control, 0 = no disease control relative to the controls) [4, 6]
Cc1nc(Br)c(C(O)c2c(Cl)cccc2Cl)n1-c1c(F)cccc1F (stereo not drawn) [compound 194]	100* %	99* %	0* %	77* %				
Cc1nc(Cl)c(C(O)c2ccc(F)cc2Cl)n1-c1c(F)cc(C#N)cc1F (stereo not drawn) [compound 198]	100* %	97* %	0* %	0* %				
Cc1nc(Br)c(C(O)c2ccc(C#N)cc2F)n1-c1c(F)cccc1F (stereo not drawn) [compound 199]	62* %	0* %	0* %	0* %				
Cc1nc(Cl)c(C(O)c2ccc(F)cc2Cl)n1-c1c(F)cccc1Cl (stereo not drawn) [compound 200]	100* %	100* %	98* %	99* %				
Cc1nc(Br)c(C(O)c2ccc(Cl)cc2Cl)n1-c1c(F)cccc1Cl (stereo not drawn) [compound 201]	100* %	100* %	89* %	99* %				
Cc1nc(Br)c(C(O)c2ccc(Cl)cc2Cl)n1-c1c(F)cccc1F (stereo not drawn) [compound 202]	100* %	98* %	82* %	100* %				
COc1cc(OC)c(Br)c(-n2c(C)nc(Br)c2C(O)c2c(F)cc(F)cc2F)c1 (stereo not drawn) [compound 203]					30%	41%	0%	66%
Cc1nc(Cl)c(C(O)c2c(F)cc(F)cc2F)n1-c1ccc(Cl)cc1 (stereo not drawn) [compound 204]					75%	19%	0%	45%
Cc1nc(Cl)n(-c2c(F)cccc2Br)c1C(O)c1ccc(F)cc1F (stereo not drawn) [compound 205]	100* %	99* %	93* %	100* %				
Cc1nc(Cl)n(-c2c(F)cccc2Cl)c1C(O)c1ccc(F)cc1Cl (stereo not drawn) [compound 206]	100* %	100* %	93* %	100* %				
Cc1nc(Cl)n(-c2c(F)cccc2Br)c1C(O)c1ccc(F)cc1Cl (stereo not drawn) [compound 207]	100* %	100* %	81* %	100* %				
Cc1cc(F)ccc1C(O)c1c(C)nc(Cl)n1-c1c(F)cccc1Cl (stereo not drawn) [compound 208]	100* %	100* %	81* %	99* %				
